The values that follow come from patent publication US5834487A, “Inhibition of 26S and 20S proteasome by indanones” (CV Therapeutics, priority 1996, dated 1998).

The structures appear in SMILES notation. In brackets after ≈: the same amount, converted by molar mass. Where only a bound is given, the exact number is not on record here.

This assay deals with T1, 20S catalytic subunit of the proteasome (multicatalytic proteinase complex) (Bos taurus, UniProt Q32KL2).
T1 construct: was purified to homogeneity from bovine brain according to published methods; from tissue; host or cells: bovine brain
In words: 20S proteasome chymotryptic activity, fluorogenic peptide cleavage. Particulars: 50 μM succinyl-leu-leu-val-tyr-7-amino-4-methyl coumarin, 15 minutes at 37° C, pH7.5. The assay is classed as biochemical, bovine. The gist of the method:
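Purified bovine-brain 20S proteasome (2 μg) with 0.1-100 μg/ml inhibitor in 50 mM HEPES, 0.1% SDS, pH 7.5. Reaction started with 50 μM Suc-LLVY-AMC, 15 min at 37° C, stopped with pH 4.0 acetate; liberated AMC read by fluorescence (ex 370, em 430 nm).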
`CC(C)CC(NC(=O)CC1CC(=O)c2ccccc21)C(=O)NC(CC(C)C)C(=O)NCC(N)=O` (mixture of isomers) [Compound 159]: the IC50 – broadly, the concentration that inhibits the measured activity by half – was greater than 10 µg/mL.

`COc1ccc2c(c1)C(CC(=O)N1CCCC1CO)CC2=O` (mixture of isomers) [Compound 164] came in with an IC50 greater than 50 µg/mL.

`COc1ccc2c(c1)C(CC(=O)NC(CO)C(O)c1ccccc1)CC2=O` (mixture of isomers) [Compound 165] yielded an IC50 greater than 50 µg/mL.

As for `COc1ccc2c(c1)C(CC(=O)NC(CC(C)C)C(=O)NC(CC(C)C)C(=O)NC(C)(C)C(N)=O)CC2=O` (mixture of isomers) [Compound 170], the IC50 is greater than 10 µg/mL.

`COc1ccc2c(c1)C(CC(=O)NC(CC(C)C)C(=O)NC(CC(C)C)C(=O)O)CC2=O` (mixture of isomers) [Compound 171]: the IC50 is greater than 10 µg/mL.

In turn, `COc1ccc2c(c1)C(CC(=O)NC(CC(C)C)C(=O)NC(CC(C)C)C(=O)O)CC2=O` (mixture of isomers) [Compound 172] showed an IC50 greater than 10 µg/mL.

As to `COc1ccc2c(c1)C(CC(=O)NC(CC(C)C)C(=O)NC(CC(C)C)C(=O)N1CCOCC1)CC2=O` (mixture of isomers) [Compound 174], the IC50 was greater than 10 µg/mL.

In the case of `COc1ccc2c(c1)C(CC(=O)NC(CC(C)C)C(=O)NC(CC(C)C)C(=O)N1CCCCC1)CC2=O` (mixture of isomers) [Compound 175], the IC50 was greater than 10 µg/mL.

In turn, `COc1ccc2c(c1)C(CC(=O)NC(CC(C)C)C(=O)NC(CC(C)C)C(=O)N1CCCC1)CC2=O` (mixture of isomers) [Compound 176] showed a half-maximal inhibitory concentration (IC50) greater than 10 µg/mL.

The molecule `COc1ccc2c(c1)C(CC(=O)NC(CC(C)C)C(=O)NC(CC(C)C)C(=O)N(Cc1ccccc1)Cc1ccccc1)CC2=O` (mixture of isomers) [Compound 177] yielded a 50% inhibitory concentration (IC50) of 1 µg/mL.

Molecule `COc1ccc2c(c1)C(CC(=O)NC(CC(C)C)C(=O)NC(CC(C)C)C(=O)NCCO)CC2=O` (mixture of isomers) [Compound 178] yielded an IC50 greater than 10 µg/mL.

`COc1ccc2c(c1)C(CC(=O)NC(CC(C)C)C(=O)NC(CC(C)C)C(=O)N(C)Cc1ccccc1)CC2=O` (mixture of isomers) [Compound 179]: the IC50 is greater than 10 µg/mL.

The molecule `COc1ccc2c(c1)C(CC(=O)NC(CC(C)C)C(=O)NC(CC(C)C)C(=O)N(C)Cc1ccccc1)CC2=O` (mixture of isomers) [Compound 180] registered an IC50 greater than 10 µg/mL.

The molecule `COc1ccc2c(c1)C(CC(=O)NC(CC(C)C)C(=O)NC(CC(C)C)C(=O)Nc1ccccc1)CC2=O` (mixture of isomers) [Compound 184] returned an IC50 greater than 10 µg/mL.

`COc1ccc2c(c1)C(CC(=O)NC(CC(C)C)C(=O)NC(CC(C)C)C(=O)NCCc1ccccc1)CC2=O` (mixture of isomers) [Compound 185] registered an IC50 greater than 10 µg/mL.

As for `COc1ccc2c(c1)C(CC(=O)NC(CC(C)C)C(=O)NC(CC(C)C)C(=O)NCCCc1ccccc1)CC2=O` (mixture of isomers) [Compound 186], the IC50 is greater than 10 µg/mL.

`COc1ccc2c(c1)C(CC(=O)NC(CC(C)C)C(=O)NC(CC(C)C)C(=O)NCC1CCCCC1)CC2=O` (mixture of isomers) [Compound 188] gave an IC50 greater than 10 µg/mL.

`COc1ccc2c(c1)C(CC(=O)NC(CC(C)C)C(=O)NC(CC(C)C)C(=O)NC13CC4CC(CC(C4)C1)C3)CC2=O` (mixture of isomers) [Compound 190] returned an IC50 greater than 10 µg/mL.

Take `COc1ccc2c(c1)C(CC(=O)NC(CC(C)C)C(=O)NC(CC(C)C)C(=O)N1CCc3ccccc3C1)CC2=O` (mixture of isomers) [Compound 191]: the IC50 is greater than 10 µg/mL.

As to `COc1ccc2c(c1)C(CC(=O)NC(CC(C)C)C(=O)NC(CC(C)C)C(=O)NCc1ccncc1)CC2=O` (mixture of isomers) [Compound 192], the half-maximal inhibitory concentration (IC50) is 10 µg/mL.

`COc1ccc2c(c1)C(CC(=O)NC(CC(C)C)C(=O)NC(CC(C)C)C(=O)NCc1ccc([N+](=O)[O-])cc1)CC2=O` (mixture of isomers) [Compound 195] showed an IC50 of 10 µg/mL.

In the case of `COc1ccc2c(c1)C(CC(=O)NC(CC(C)C)C(=O)NCc1ccccc1)CC2=O` (mixture of isomers) [Compound 198], the IC50 was greater than 10 µg/mL.

Consider `COc1ccc2c(c1)C(CC(=O)NC(CC(C)C)C(=O)N(Cc1ccccc1)Cc1ccccc1)CC2=O` (mixture of isomers) [Compound 199], for which the concentration for half-maximal inhibition (IC50) is greater than 10 µg/mL.

For `COc1ccc2c(c1)C(CC(=O)NC(CC(C)C)C(=O)NCCC(C)C)CC2=O` (mixture of isomers) [Compound 200], the IC50 is greater than 10 µg/mL.

`COc1ccc2c(c1)C(CC(=O)Nc1ccc(I)cc1)CC2=O` (racemic) [Compound 152]: the IC50 was greater than 10 µg/mL.

The molecule `COc1ccc2c(c1)C(CC(=O)Nc1c(C)cccc1[N+](=O)[O-])CC2=O` (racemic) [Compound 153] displayed an IC50 greater than 10 µg/mL.

`COc1ccc2c(c1)C(CC(=O)Nc1nc(C)cc(Cl)n1)CC2=O` (racemic) [Compound 155] yielded an IC50 greater than 10 µg/mL.

`COc1ccc2c(c1)C(CC(=O)Nc1ccc(Cl)cn1)CC2=O` (racemic) [Compound 156] showed a 50% inhibitory concentration (IC50) greater than 10 µg/mL.

Molecule `COc1ccc2c(c1)C(CC(=O)Nc1ccc(Cl)c(Cl)c1)CC2=O` (racemic) [Compound 157] showed an IC50 greater than 10 µg/mL.

For `COc1ccc2c(c1)C(CC(=O)Nc1ccnc(S)n1)CC2=O` (racemic) [Compound 158], the IC50 is greater than 10 µg/mL.

Molecule `COc1ccc2c(c1)C(CC(=O)N1CCc3ccccc31)CC2=O` (racemic) [Compound 160] yielded an IC50 greater than 10 µg/mL.

As for `COc1ccc2c(c1)C(CC(=O)NCCCc1ccccc1)CC2=O` (racemic) [Compound 161], the IC50 was greater than 50 µg/mL.

`COc1ccc(NC(=O)CC2CC(=O)c3ccc(OC)cc32)cc1` (racemic) [Compound 162] had an IC50 greater than 50 µg/mL.

`COc1ccc2c(c1)C(CC(=O)NCc1ccc3c(c1)OCO3)CC2=O` (racemic) [Compound 163] came in with a half-inhibitory concentration (IC50) greater than 50 µg/mL.

In turn, `COc1ccc2c(c1)C(CC(=O)N(CCO)Cc1ccccc1)CC2=O` (racemic) [Compound 166] came in with an IC50 greater than 50 µg/mL.

On to `COc1ccc2c(c1)C(CC(=O)N(C)C)CC2=O` (racemic) [Compound 167], for which the IC50 is greater than 50 µg/mL.

For `COc1ccc2c(c1)C(CC(=O)Nc1ccccc1)CC2=O` (racemic) [Compound 168], the IC50 is greater than 50 µg/mL.

Molecule `COCCN(CCOC)C(=O)CC1CC(=O)c2ccc(OC)cc21` (racemic) [Compound 169] yielded an IC50 greater than 50 µg/mL.

For the molecule `COc1ccc2c(c1)C(CC(=O)N[C@@H](CC(C)C)C(=O)N[C@H](CC(C)C)C(=O)NCC(N)=O)CC2=O` (single isomer, unassigned) [Compound 50], the IC50 turned out to be 0.5 µg/mL (≈ 0.995 µM).

As to `COc1ccc2c(c1)C(CC(=O)N[C@@H](CC(C)C)C(=O)N[C@H](CC(C)C)C(=O)NCC(N)=O)CC2=O` (single isomer, unassigned) [Compound 51], the IC50 turned out to be 0.5 µg/mL (≈ 0.995 µM).

The molecule `COc1ccc2c(c1)C(CC(=O)NCc1ccccc1)CC2=O` (stereo not shown) [Compound 38] returned an IC50 greater than 10 µg/mL.

The molecule `COc1ccc2c(c1)C(CC(=O)N(Cc1ccccc1)Cc1ccccc1)CC2=O` (stereo not shown) [Compound 39] gave an IC50 greater than 10 µg/mL.

The molecule `COc1ccc2c(c1)C(CC(=O)NCC(=O)NCC(=O)NCC(N)=O)CC2=O` (stereo not shown) [Compound 40] showed an IC50 greater than 10 µg/mL.

For the molecule `COc1ccc2c(c1)C(CC(=O)N(C(C)C)C(C)C)CC2=O` (stereo not shown) [Compound 62], the IC50 is greater than 10 µg/mL.

In turn, `COc1ccc2c(c1)C(CC(=O)N1CCOCC1)CC2=O` (stereo not shown) [Compound 63] displayed a 50% inhibitory concentration (IC50) greater than 10 µg/mL.

In turn, `COc1ccc2c(c1)C(CC(=O)N1CCCC1)CC2=O` (stereo not shown) [Compound 64] came in with an IC50 greater than 10 µg/mL.

In turn, `COc1ccc2c(c1)C(CC(=O)NCCc1ccccc1)CC2=O` (stereo not shown) [Compound 65] came in with an IC50 greater than 10 µg/mL.

Take `COc1ccc2c(c1)C(CC(=O)NCCCc1ccccc1)CC2=O` (stereo not shown) [Compound 66]: the concentration for half-maximal inhibition (IC50) was greater than 10 µg/mL.

The molecule `COc1ccc2c(c1)C(CC(=O)N1CCCCC1)CC2=O` (stereo not shown) [Compound 67] registered an IC50 greater than 10 µg/mL.

On to `CCN(CC)C(=O)CC1CC(=O)c2ccc(OC)cc21` (stereo not shown) [Compound 68], for which the IC50 was greater than 10 µg/mL.

The molecule `COc1ccc2c(c1)C(CC(=O)NC1CCC1)CC2=O` (stereo not shown) [Compound 69] displayed an IC50 greater than 10 µg/mL.

`CCCCCCCNC(=O)CC1CC(=O)c2ccc(OC)cc21` (stereo not shown) [Compound 70] registered a half-maximal inhibitory concentration (IC50) greater than 10 µg/mL.

The molecule `COCCCNC(=O)CC1CC(=O)c2ccc(OC)cc21` (stereo not shown) [Compound 71] displayed an IC50 greater than 10 µg/mL.

In turn, `COc1ccc2c(c1)C(CC(=O)NCCc1ccc(OC)c(OC)c1)CC2=O` (stereo not shown) [Compound 72] registered an IC50 greater than 10 µg/mL.

Take `COc1ccc2c(c1)C(CC(=O)N(C)Cc1ccccc1)CC2=O` (stereo not shown) [Compound 73]: the half-inhibitory concentration (IC50) is greater than 10 µg/mL.

The molecule `COc1ccc2c(c1)C(CC(=O)NC1CCCC1)CC2=O` (stereo not shown) [Compound 74] registered a concentration for half-maximal inhibition (IC50) greater than 10 µg/mL.

With `COc1ccc2c(c1)C(CC(=O)N1C(C)CCCC1C)CC2=O` (stereo not shown) [Compound 75], the IC50 was greater than 10 µg/mL.

`COc1ccc2c(c1)C(CC(=O)N(CCO)Cc1ccccc1)CC2=O` (stereo not shown) [Compound 76] had an IC50 greater than 10 µg/mL.

For `COc1ccc2c(c1)C(CC(=O)N1CCc3ccccc31)CC2=O` (stereo not shown) [Compound 77], the IC50 is greater than 10 µg/mL.

Molecule `COc1ccc2c(c1)C(CC(=O)N(C)C)CC2=O` (stereo not shown) [Compound 78] returned a 50% inhibitory concentration (IC50) greater than 10 µg/mL.

Take `COCCN(CCOC)C(=O)CC1CC(=O)c2ccc(OC)cc21` (stereo not shown) [Compound 79]: the IC50 was greater than 10 µg/mL.
